According to the NIST ThermoML archive (doi:10.1021/je060170c):
Numbers after ± are expanded uncertainties.

Test: xn = mol fraction of the nth substance listed
Settings: 101 kPa, Liquid; for viscosity: Anton Paar Stabinger viscometer

COc1ccccc1 [anisole] + Cc1ccc(C)cc1 showed a viscosity (288.15 K, x1 = 0.0822) of 0.728 ± 0.022 mPa·s, a viscosity (288.15 K, x1 = 0.187) of 0.778 ± 0.024 mPa·s and a viscosity (288.15 K, x1 = 0.31) of 0.829 ± 0.025 mPa·s. It also gave a viscosity (288.15 K, x1 = 0.47) of 0.884 ± 0.027 mPa·s, a viscosity (288.15 K, x1 = 0.637) of 0.958 ± 0.029 mPa·s and a viscosity (288.15 K, x1 = 0.747) of 1.013 ± 0.031 mPa·s. It also gave a viscosity (288.15 K, x1 = 0.822) of 1.109 ± 0.034 mPa·s, a viscosity (288.15 K, x1 = 0.888) of 1.145 ± 0.035 mPa·s and a viscosity (288.15 K, x1 = 0.949) of 1.167 ± 0.035 mPa·s. The viscosity (288.15 K, x1 = 1) was 1.188 ± 0.036 mPa·s, the mass density (288.15 K, x1 = 0.0822) was 875.328 ± 0.36 kg/m3 and the speed of sound (288.15 K, x1 = 0.0822) was 1360.3 ± 5.5 m/s. It also gave a mass density (288.15 K, x1 = 0.187) of 888.441 ± 0.34 kg/m3, a speed of sound (288.15 K, x1 = 0.187) of 1373.1 ± 5.5 m/s and a mass density (288.15 K, x1 = 0.31) of 904.181 ± 0.33 kg/m3. For the same molecule, the speed of sound (288.15 K, x1 = 0.31) was 1384.4 ± 5.6 m/s, the mass density (288.15 K, x1 = 0.47) was 925.057 ± 0.3 kg/m3 and the speed of sound (288.15 K, x1 = 0.47) was 1395.9 ± 5.6 m/s. It also gave a mass density (288.15 K, x1 = 0.637) of 947.54 ± 0.28 kg/m3, a speed of sound (288.15 K, x1 = 0.637) of 1410.4 ± 5.7 m/s and a mass density (288.15 K, x1 = 0.747) of 962.692 ± 0.26 kg/m3. The speed of sound (288.15 K, x1 = 0.747) was 1420.6 ± 5.7 m/s, the mass density (288.15 K, x1 = 0.822) was 973.119 ± 0.25 kg/m3 and the speed of sound (288.15 K, x1 = 0.822) was 1437 ± 5.7 m/s. For the same molecule, the mass density (288.15 K, x1 = 0.888) was 982.387 ± 0.24 kg/m3, the speed of sound (288.15 K, x1 = 0.888) was 1443 ± 5.8 m/s and the mass density (288.15 K, x1 = 0.949) was 991.051 ± 0.23 kg/m3. It also gave a speed of sound (288.15 K, x1 = 0.949) of 1446.3 ± 5.8 m/s, a mass density (288.15 K, x1 = 1) of 998.44 ± 0.23 kg/m3 and a speed of sound (288.15 K, x1 = 1) of 1449.1 ± 5.8 m/s. The viscosity (293.15 K, x1 = 0.0822) was 0.674 ± 0.02 mPa·s, the viscosity (293.15 K, x1 = 0.187) was 0.717 ± 0.022 mPa·s and the viscosity (293.15 K, x1 = 0.31) was 0.761 ± 0.023 mPa·s. It also gave a viscosity (293.15 K, x1 = 0.47) of 0.809 ± 0.025 mPa·s, a viscosity (293.15 K, x1 = 0.637) of 0.875 ± 0.027 mPa·s and a viscosity (293.15 K, x1 = 0.747) of 0.925 ± 0.028 mPa·s. It also gave a viscosity (293.15 K, x1 = 0.822) of 1.013 ± 0.031 mPa·s, a viscosity (293.15 K, x1 = 0.888) of 1.046 ± 0.032 mPa·s and a viscosity (293.15 K, x1 = 0.949) of 1.066 ± 0.032 mPa·s. For the same molecule, the viscosity (293.15 K, x1 = 1) was 1.084 ± 0.033 mPa·s, the mass density (293.15 K, x1 = 0.0822) was 871.032 ± 0.37 kg/m3 and the speed of sound (293.15 K, x1 = 0.0822) was 1339.5 ± 5.4 m/s. The mass density (293.15 K, x1 = 0.187) was 884.105 ± 0.35 kg/m3, the speed of sound (293.15 K, x1 = 0.187) was 1352.5 ± 5.5 m/s and the mass density (293.15 K, x1 = 0.31) was 899.758 ± 0.33 kg/m3. The speed of sound (293.15 K, x1 = 0.31) was 1364 ± 5.5 m/s, the mass density (293.15 K, x1 = 0.47) was 920.561 ± 0.31 kg/m3 and the speed of sound (293.15 K, x1 = 0.47) was 1375.3 ± 5.5 m/s. It also gave a mass density (293.15 K, x1 = 0.637) of 942.968 ± 0.28 kg/m3, a speed of sound (293.15 K, x1 = 0.637) of 1389.9 ± 5.6 m/s and a mass density (293.15 K, x1 = 0.747) of 958.092 ± 0.27 kg/m3. For the same molecule, the speed of sound (293.15 K, x1 = 0.747) was 1400.3 ± 5.6 m/s, the mass density (293.15 K, x1 = 0.822) was 968.502 ± 0.26 kg/m3 and the speed of sound (293.15 K, x1 = 0.822) was 1416.7 ± 5.7 m/s. For the same molecule, the mass density (293.15 K, x1 = 0.888) was 977.769 ± 0.25 kg/m3, the speed of sound (293.15 K, x1 = 0.888) was 1422.5 ± 5.7 m/s and the mass density (293.15 K, x1 = 0.949) was 986.356 ± 0.24 kg/m3. The speed of sound (293.15 K, x1 = 0.949) was 1425.8 ± 5.7 m/s, the mass density (293.15 K, x1 = 1) was 993.651 ± 0.23 kg/m3 and the speed of sound (293.15 K, x1 = 1) was 1428.5 ± 5.7 m/s. It also gave a viscosity (298.15 K, x1 = 0.0822) of 0.635 ± 0.019 mPa·s, a viscosity (298.15 K, x1 = 0.187) of 0.674 ± 0.02 mPa·s and a viscosity (298.15 K, x1 = 0.31) of 0.714 ± 0.022 mPa·s. The viscosity (298.15 K, x1 = 0.47) was 0.759 ± 0.023 mPa·s, the viscosity (298.15 K, x1 = 0.637) was 0.821 ± 0.025 mPa·s and the viscosity (298.15 K, x1 = 0.747) was 0.868 ± 0.026 mPa·s. For the same molecule, the viscosity (298.15 K, x1 = 0.822) was 0.952 ± 0.029 mPa·s, the viscosity (298.15 K, x1 = 0.888) was 0.985 ± 0.03 mPa·s and the viscosity (298.15 K, x1 = 0.949) was 1.003 ± 0.03 mPa·s. It also gave a viscosity (298.15 K, x1 = 1) of 1.017 ± 0.031 mPa·s, a mass density (298.15 K, x1 = 0.0822) of 866.765 ± 0.37 kg/m3 and a speed of sound (298.15 K, x1 = 0.0822) of 1317.4 ± 5.4 m/s. For the same molecule, the mass density (298.15 K, x1 = 0.187) was 879.807 ± 0.36 kg/m3, the speed of sound (298.15 K, x1 = 0.187) was 1326.5 ± 5.4 m/s and the mass density (298.15 K, x1 = 0.31) was 895.413 ± 0.34 kg/m3. For the same molecule, the speed of sound (298.15 K, x1 = 0.31) was 1337.5 ± 5.4 m/s, the mass density (298.15 K, x1 = 0.47) was 916.177 ± 0.32 kg/m3 and the speed of sound (298.15 K, x1 = 0.47) was 1352.2 ± 5.5 m/s. It also gave a mass density (298.15 K, x1 = 0.637) of 938.559 ± 0.29 kg/m3, a speed of sound (298.15 K, x1 = 0.637) of 1368.2 ± 5.5 m/s and a mass density (298.15 K, x1 = 0.747) of 953.665 ± 0.28 kg/m3. For the same molecule, the speed of sound (298.15 K, x1 = 0.747) was 1379.3 ± 5.6 m/s, the mass density (298.15 K, x1 = 0.822) was 964.094 ± 0.26 kg/m3 and the speed of sound (298.15 K, x1 = 0.822) was 1387.4 ± 5.6 m/s. The mass density (298.15 K, x1 = 0.888) was 973.344 ± 0.25 kg/m3, the speed of sound (298.15 K, x1 = 0.888) was 1394.8 ± 5.6 m/s and the mass density (298.15 K, x1 = 0.949) was 981.943 ± 0.25 kg/m3. The speed of sound (298.15 K, x1 = 0.949) was 1401.8 ± 5.6 m/s, the mass density (298.15 K, x1 = 1) was 989.105 ± 0.24 kg/m3 and the speed of sound (298.15 K, x1 = 1) was 1408 ± 5.7 m/s. It also gave a viscosity (303.15 K, x1 = 0.0822) of 0.597 ± 0.018 mPa·s, a viscosity (303.15 K, x1 = 0.187) of 0.628 ± 0.019 mPa·s and a viscosity (303.15 K, x1 = 0.31) of 0.662 ± 0.02 mPa·s. The viscosity (303.15 K, x1 = 0.47) was 0.7 ± 0.021 mPa·s, the viscosity (303.15 K, x1 = 0.637) was 0.754 ± 0.023 mPa·s and the viscosity (303.15 K, x1 = 0.747) was 0.798 ± 0.024 mPa·s. The viscosity (303.15 K, x1 = 0.822) was 0.875 ± 0.027 mPa·s, the viscosity (303.15 K, x1 = 0.888) was 0.903 ± 0.027 mPa·s and the viscosity (303.15 K, x1 = 0.949) was 0.918 ± 0.028 mPa·s. It also gave a viscosity (303.15 K, x1 = 1) of 0.931 ± 0.028 mPa·s, a mass density (303.15 K, x1 = 0.0822) of 862.434 ± 0.38 kg/m3 and a speed of sound (303.15 K, x1 = 0.0822) of 1296.9 ± 5.3 m/s. The mass density (303.15 K, x1 = 0.187) was 875.432 ± 0.36 kg/m3, the speed of sound (303.15 K, x1 = 0.187) was 1306.5 ± 5.3 m/s and the mass density (303.15 K, x1 = 0.31) was 890.974 ± 0.35 kg/m3. It also gave a speed of sound (303.15 K, x1 = 0.31) of 1317.6 ± 5.4 m/s, a mass density (303.15 K, x1 = 0.47) of 911.659 ± 0.32 kg/m3 and a speed of sound (303.15 K, x1 = 0.47) of 1332.7 ± 5.4 m/s. It also gave a mass density (303.15 K, x1 = 0.637) of 933.983 ± 0.3 kg/m3, a speed of sound (303.15 K, x1 = 0.637) of 1349.1 ± 5.5 m/s and a mass density (303.15 K, x1 = 0.747) of 949.069 ± 0.28 kg/m3. For the same molecule, the speed of sound (303.15 K, x1 = 0.747) was 1360.5 ± 5.5 m/s, the mass density (303.15 K, x1 = 0.822) was 959.511 ± 0.27 kg/m3 and the speed of sound (303.15 K, x1 = 0.822) was 1368.5 ± 5.5 m/s. The mass density (303.15 K, x1 = 0.888) was 968.761 ± 0.26 kg/m3, the speed of sound (303.15 K, x1 = 0.888) was 1375.6 ± 5.6 m/s and the mass density (303.15 K, x1 = 0.949) was 977.313 ± 0.25 kg/m3. It also gave a speed of sound (303.15 K, x1 = 0.949) of 1382.3 ± 5.6 m/s, a mass density (303.15 K, x1 = 1) of 984.372 ± 0.24 kg/m3 and a speed of sound (303.15 K, x1 = 1) of 1387.7 ± 5.6 m/s.
